Measurements reported in US20050014811A1, “Substituted benzimidazole compounds and their use for the treatment of cancer” (Aventis Pharma S.A., priority 2001, published 2005).

Molecular target: CDK4/CyclinD1 (Homo sapiens, UniProt P11802)
Assay: CDK4/CyclinD1 Flashplate assay, 96-well format, biotinylated-Rb peptide substrate
Format: biochemical
Method: This is a CDK4/CyclinD1 kinase assay in a 96-well Streptavidin-coated Flashplate with a biotinylated-Rb peptide substrate.
Each point is tested in duplicate
Biotinylated-Rb: Biotin-[…]
• 1. Prepare substrate: 1 mg/ml solution made fresh in PBS. • 2. Add 100 μg per well to the Flashplate. • 3. Incubate for 2 hours at RT. • 4. From 10 mM inhibitor stocks in DMSO, make 1 mM, 300 μM, 100 μM, 30 μM and 10 μM series of dilution in DMSO. • 5. Wash the Flashplate 3 times with 300 μl PBS to remove unbound peptide substrate. • 6. Add the CDK4/CyclinD1 kinase: 70 ng per well, in a volume of 90 μl in kinase buffer (except for “no enzyme” control wells). • 7. Add 1 μl^1 per well of inhibitor to test 10 μM, 3 μM, 1 μM, 0.3 μM and 0.1 μM in final concentration per 100 μl in each well. • 8. Shake gently the Flashplate 1 minute. • 9. Incubate 30 minutes on wet ice. • 10. Initiate the reaction with 10 μl kinase buffer containing 1 μM final cold ATP and 1 μCi final ^33P-ATP per well. • 11. Shake gently the Flashplate 1 minute. • 12. Incubate 45 minutes at RT (no shaking). • 13. Wash the Flashplate 3 times with 300 μl PBS • 14. Count to detect the incorporation of ^33P-ATP by the kinase to the Rb phosphorylation site.

Sequence of CDK4/CyclinD1 (P11802 whole entry, species assumed): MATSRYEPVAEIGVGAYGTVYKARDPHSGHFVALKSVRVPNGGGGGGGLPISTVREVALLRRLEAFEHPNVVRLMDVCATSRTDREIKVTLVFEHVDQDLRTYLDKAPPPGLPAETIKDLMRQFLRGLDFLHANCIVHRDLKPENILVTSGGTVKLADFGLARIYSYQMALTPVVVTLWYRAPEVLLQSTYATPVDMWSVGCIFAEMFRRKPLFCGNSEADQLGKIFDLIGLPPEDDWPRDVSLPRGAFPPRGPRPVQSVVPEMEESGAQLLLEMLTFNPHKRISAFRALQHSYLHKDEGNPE
Sequence of CDK4/CyclinD1 (P24385 whole entry partner, species assumed): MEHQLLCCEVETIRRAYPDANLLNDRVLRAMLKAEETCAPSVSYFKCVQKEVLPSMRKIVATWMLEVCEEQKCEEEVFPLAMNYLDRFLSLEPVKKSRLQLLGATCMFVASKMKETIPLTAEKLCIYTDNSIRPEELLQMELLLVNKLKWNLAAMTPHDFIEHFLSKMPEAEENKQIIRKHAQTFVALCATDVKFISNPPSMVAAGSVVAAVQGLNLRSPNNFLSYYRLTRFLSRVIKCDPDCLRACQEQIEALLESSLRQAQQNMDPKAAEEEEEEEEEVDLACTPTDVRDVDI

Compound | IC50 [nM] | inhibition at 10 µM [%]
4-Benzylamino-benzenesulfonic acid 2-(cyclopropanecarbonyl-amino)-1H-benzoimidazol-5-yl ester [Example 60-a] | 800 | 
COC(=O)Nc1nc2cc(OS(=O)(=O)c3ccc(NC(C)CO)cc3)ccc2[nH]1 (stereo not shown) [Example 8, Methyl-5-(4-[1-methyl,2-hydroxyethyl]aminophenyl-sulfonyloxy) benzimidazole-2-carbamate] | 1100 | 
COC(=O)Nc1nc2cc(OS(=O)(=O)c3ccc(NCC(C)O)cc3)ccc2[nH]1 (stereo not shown) [Example 9, Methyl-5-(4-[2-methyl,2-hydroxyethyl]aminophenyl-sulfonyloxy) benzimidazole-2-carbamate] | 2000 | 
CCCCNc1ccc(S(=O)(=O)Oc2ccc3[nH]c(NC(=O)OC)nc3c2)cc1 [Example 12, Methyl-5-(4-butylaminophenylsulfonyloxy) benzimidazole-2-carbamate] |  | 14
Nc1nc2cc(OS(=O)(=O)c3ccc(NC4CCCC4)cc3)ccc2[nH]1 [Example 22, 5-(4-cyclopentylaminophenylsulfonyloxy)-1H-benzimidazole-2-ylamine] | 1770 | 
NC(=O)C1CCCN1C(=O)Nc1nc2cc(OS(=O)(=O)c3ccc(NC4CCCC4)cc3)ccc2[nH]1 (stereo not drawn) [Example 58-ae, 4-Cyclopentylamino-benzenesulfonic acid 2-[(2S-carbamoyl-pyrrolidine-1-carbonyl)-amino]-1H-benzoimidazol-5-yl ester] | 1490 | 
CCOC(=O)CCCNC(=O)Nc1nc2cc(OS(=O)(=O)c3ccc(NC4CCCC4)cc3)ccc2[nH]1 [Example 58-n, 4-{3-[5-(4-Cyclopentylamino-benzenesulfonyloxy)-1H-benzoimidazol-2-yl]-ureido}-butyric acid ethyl ester] | 600 | 
O=C(NCCCn1ccnc1)Nc1nc2cc(OS(=O)(=O)c3ccc(NC4CCCC4)cc3)ccc2[nH]1 [Example 58-p, 4-Cyclopentylamino-benzenesulfonic acid 2-[3-(3-imidazol-1-yl-propyl)-ureido]-1H-benzoimidazol-5-yl ester] | 600 | 
O=C(O)[C@@H]1CCCN1C(=O)Nc1nc2cc(OS(=O)(=O)c3ccc(NC4CCCC4)cc3)ccc2[nH]1 [Example 58-q, 1-[5-(4-Cyclopentylamino-benzenesulfonyloxy)-1H-benzoimidazol-2S-ylcarbamoyl]-pyrrolidine-2-carboxylic acid] | 1000 | 
CCOC(=O)C1CCN(C(=O)Nc2nc3cc(OS(=O)(=O)c4ccc(NC5CCCC5)cc4)ccc3[nH]2)CC1 [Example 58-t, 1-[5-(4-Cyclopentylamino-benzenesulfonyloxy)-1H-benzoimidazol-2-yl-carbamoyl]-piperidine-4-carboxylic acid ethyl ester] | 9000 | 
CCC(C)(C)NC(=O)Nc1nc2cc(OS(=O)(=O)c3ccc(NC4CCCC4)cc3)ccc2[nH]1 [Example 58-z, 4-Cyclopentylamino-benzenesulfonic acid 2-[3-(1,1-dimethyl-propyl)-ureido]-1H-benzoimidazol-5-yl ester] | 2230 | 
O=C(Nc1nc2cc(OS(=O)(=O)c3ccc(NCCN4CCNCC4)cc3)ccc2[nH]1)C1CC1 [Example 60-aa, 4-(2-Piperazin-1-yl-ethylamino)-benzene-sulfonic acid 2-(cyclopropanecarbonyl-amino)-1H-benzoimidazol-5-yl ester] | 3900 | 
NC(=O)C1CCCCC1Nc1ccc(S(=O)(=O)Oc2ccc3[nH]c(NC(=O)C4CC4)nc3c2)cc1 (stereo not shown) [Example 60-ab, 4-(2-Carbamoyl-cyclohexylamino)-benzenesulfonic acid 2-(cyclopropanecarbonyl-amino)-1H-benzoimidazol-5-yl ester] | 4000 | 
CC(=O)NCCNc1ccc(S(=O)(=O)Oc2ccc3[nH]c(NC(=O)C4CC4)nc3c2)cc1 [Example 60-ac, 4-(2-Acetylamino-ethylamino)-benzenesulfonic acid 2-(cyclopropanecarbonyl-amino)-1H-benzoimidazol-5-yl ester] | 800 | 
NCCNCCNc1ccc(S(=O)(=O)Oc2ccc3[nH]c(NC(=O)C4CC4)nc3c2)cc1 [Example 60-ad, 4-[2-(2-Amino-ethylamino)-ethylamino]-benzenesulfonic acid 2-(cyclopropanecarbonyl-amino)-1H-benzoimidazol-5-yl ester] | 1300 | 
O=C(Nc1nc2cc(OS(=O)(=O)c3ccc(NCCCN4CCCC4=O)cc3)ccc2[nH]1)C1CC1 [Example 60-ae, 4-[3-(2-Oxo-pyrrolidin-1-yl)-propylamino]-benzenesulfonic acid 2-(cyclopropanecarbonyl-amino)-1H-benzoimidazol-5-yl ester] | 2200 | 

Compound | IC50 [nM] | inhibition at 10 µM [%]
O=C(Nc1nc2cc(OS(=O)(=O)c3ccc(NC4CCC4)cc3)ccc2[nH]1)C1CC1 [Example 60-ah, 4-Cyclobutylamino-benzenesulfonic acid 2-(cyclopropanecarbonyl-amino)-1H-benzoimidazol-5-yl ester] | 550 | 
O=C(Nc1nc2cc(OS(=O)(=O)c3ccc(NCCOCCO)cc3)ccc2[nH]1)C1CC1 [Example 60-ai, 4-[2-(2-Hydroxy-ethoxy)-ethylamino]-benzenesulfonic acid 2-(cyclopropanecarbonyl-amino)-1H-benzoimidazol-5-yl ester] | 1600 | 
CNc1ccc(S(=O)(=O)Oc2ccc3[nH]c(NC(=O)C4CC4)nc3c2)cc1 [Example 60-b, 4-Methylamino-benzenesulfonic acid 2-(cyclopropanecarbonyl-amino)-1H-benzoimidazol-5-yl ester] | 150 | 
O=C(Nc1nc2cc(OS(=O)(=O)c3ccc(NCCO)cc3)ccc2[nH]1)C1CC1 [Example 60-c, 4-(2-Hydroxy-ethylamino)-benzenesulfonic acid 2-(cyclopropanecarbonyl-amino)-1H-benzoimidazol-5-yl ester] | 340 | 
O=C(Nc1nc2cc(OS(=O)(=O)c3ccc(NCCCO)cc3)ccc2[nH]1)C1CC1 [Example 60-d, 4-(3-Hydroxy-propylamino)-benzenesulfonic acid 2-(cyclopropanecarbonyl-amino)-1H-benzoimidazo1-5-yl ester] | 900 | 
O=C(Nc1nc2cc(OS(=O)(=O)c3ccc(NCCCCO)cc3)ccc2[nH]1)C1CC1 [Example 60-e, 4-(4-Hydroxy-butylamino)-benzenesulfonic acid 2-(cyclopropanecarbonyl-amino)-1H-benzoimidazol-5-yl ester] | 900 | 
COCC(C)Nc1ccc(S(=O)(=O)Oc2ccc3[nH]c(NC(=O)C4CC4)nc3c2)cc1 (stereo not shown) [Example 60-f, 4-(2-Methoxy-1-methyl-ethylamino)-benzenesulfonic acid 2-(cyclopropanecarbonyl-amino)-1H-benzoimidazol-5-yl ester] | 1000 | 
O=C(Nc1nc2cc(OS(=O)(=O)c3ccc(NCCN4CCCC4)cc3)ccc2[nH]1)C1CC1 [Example 60-g, 4-(2-Pyrrolidin-1-yl-ethylamino)-benzenesulfonic acid 2-(cyclopropanecarbonyl-amino)-1H-benzoimidazol-5-yl ester] | 1500 | 
CC(CO)Nc1ccc(S(=O)(=O)Oc2ccc3[nH]c(NC(=O)C4CC4)nc3c2)cc1 (stereo not shown) [Example 60-i, 4-(2-Hydroxy-1-methyl-ethylamino)-benzenesulfonic acid 2-(cyclopropanecarbonyl-amino)-1H-benzoimidazol-5-yl ester] | 300 | 
CC(C)(CO)CNc1ccc(S(=O)(=O)Oc2ccc3[nH]c(NC(=O)C4CC4)nc3c2)cc1 [Example 60-l, 4-(3-Hydroxy-2,2-dimethyl-propylamino)-benzenesulfonic acid 2-(cyclopropanecarbonyl-amino)-1H-benzoimidazol-5-yl ester] | 400 | 
O=C(Nc1nc2cc(OS(=O)(=O)c3ccc(NCc4cccnc4)cc3)ccc2[nH]1)C1CC1 [Example 60-m, 4-[(Pyridin-3-yl-methyl)-amino]-benzenesulfonic acid 2-(cyclopropanecarbonyl-amino)-1H-benzoimidazol-5-yl ester] | 500 | 
CN1CCN(CCCNc2ccc(S(=O)(=O)Oc3ccc4[nH]c(NC(=O)C5CC5)nc4c3)cc2)CC1 [Example 60-n, 4-[3-(4-Methyl-piperazin-1-yl)-propylamino]-benzenesulfonic acid 2-(cyclopropanecarbonyl-amino)-1H-benzoimidazol-5-yl ester] | 2000 | 
O=C(Nc1nc2cc(OS(=O)(=O)c3ccc(NC4CCC(O)CC4)cc3)ccc2[nH]1)C1CC1 (stereo not shown) [Example 60-p, 4-(4-Hydroxy-cyclohexylamino)-benzenesulfonic acid 2-(cyclopropanecarbonyl-amino)-1H-benzoimidazol-5-yl ester] | 1200 | 
CCN(CC)CCNc1ccc(S(=O)(=O)Oc2ccc3[nH]c(NC(=O)C4CC4)nc3c2)cc1 [Example 60-q, 4-(2-Diethylamino-ethylamino)-benzenesulfonic acid 2-(cyclopropanecarbonyl-amino)-1H-benzoimidazol-5-yl ester] | 1800 | 
CC[C@@H](CO)Nc1ccc(S(=O)(=O)Oc2ccc3[nH]c(NC(=O)C4CC4)nc3c2)cc1 [Example 60-r, 4-(1S-Hydroxymethyl-propylamino)-benzenesulfonic acid 2-(cyclopropanecarbonyl-amino)-1H-benzoimidazol-5-yl ester] | 600 | 
